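Exposure lasted 48 hours, with cells grown in 96-well plates and compounds tested at five concentrations. TGI marks complete inhibition of growth.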 Some results are limits rather than exact numbers.

Results on three compounds are retold here after PubChem BioAssay (NCI).

Test systems include DU-145 prostate; RXF 393 renal; SK-MEL-28 melanoma; SF-539 CNS; OVCAR-8 ovarian; SF-295 CNS; MDA-MB-435; OVCAR-5 ovarian; MOLT-4 leukemia; KM12 colon.
What all share (test): NCI tumour cell line growth inhibition, 48 h

Turning to `C=CC(Br)(CBr)CCC(Br)C(C)(C)Cl` (stereo not given), the TGI worked out at 9.92 µM with DU-145 prostate; 8.86 µM in the experiment with RXF 393 renal; 6 µM in the experiment on SK-MEL-28 melanoma; 3.78 µM with SF-539 CNS; 10.2 µM in the experiment with OVCAR-8 ovarian; 3.6 µM in the experiment with SF-295 CNS. For the same compound, the TGI in the experiment on MDA-MB-435 was found to be 5.82 µM; in the experiment with OVCAR-5 ovarian, 14.5 µM; in the experiment on MOLT-4 leukemia, 4.05 µM; in the experiment on KM12 colon, 3.92 µM.

Regarding `CC(=O)c1cccc(NC(=O)C(=O)C(c2cnc3ccc([N+](=O)[O-])cc3n2)[N+](=O)[O-])c1` (stereo not given), the TGI in the experiment on DU-145 prostate, with RXF 393 renal, in the experiment with SK-MEL-28 melanoma, in the experiment with SF-539 CNS, in the experiment with OVCAR-8 ovarian and in the experiment on SF-295 CNS was over 100 µM each time. Also, the TGI with MDA-MB-435, in the experiment on OVCAR-5 ovarian, in the experiment with MOLT-4 leukemia and with KM12 colon was over 100 µM each time.

Consider `CCOC(=O)c1c(-c2ccc(Br)cc2)ccn1C`, for which the TGI in the experiment with DU-145 prostate, with RXF 393 renal, in the experiment with SK-MEL-28 melanoma, in the experiment with SF-539 CNS, in the experiment on OVCAR-8 ovarian and in the experiment on SF-295 CNS was over 10 µM throughout. For the same compound, the TGI in the experiment with MDA-MB-435, in the experiment on OVCAR-5 ovarian, in the experiment on MOLT-4 leukemia and with KM12 colon was over 10 µM in each case.
